Holding throughout (type): cell-based, human
The subject of assay [1] is phSC cells. Description: Cell stiffness measurement by atomic force microscopy (AFM). The method, then: Cell stiffness measurement: SC cells were seeded on coverslips and grown to confluence. An MFD-3D AFM (Asylum Research, Santa Barbara, CA, USA) was used to make stiffness measurements using silicon nitride cantilevers with an attached borosilicate sphere (diameter=10 μm; nominal spring constant=0.1 N/m; Novascan Technologies, Inc., Ames, IA, USA). […] The indentation depth was limited to 400 nm to avoid substrate effects and the tip velocity was adjusted to 800 nm/s to avoid viscous effects^37. 5 measurements/cell were conducted, and at least 5 cells were measured/cell strain. Data from AFM measurements were fitted to the Hertz model to calculate the Young's Modulus of the cells.

For assay [2], the system named is phSC cells. The experiment in a line: Particle-induced transcellular pore formation, fluorescent pore-label assay, cells seeded above microparticles. The method, then:
Substrate preparation and cell culture for transcellular pore formation using microparticles: Round cover glasses (12 mm in diameter) were employed for SEM imaging, while 16-well chambered cover glasses (16 wells per cover glass; Invitrogen C37000) were utilized for other experiments. Glass substrates underwent plasma treatment (Harrick Plasma, PDC-32G) for 2 minutes at high RF power and were immediately incubated at 37° C. with 0.5 mg/mL biotinylated gelatin for 24 hours. After three washes with PBS, the cover glasses were incubated with microbial transglutaminase (0.001 unit/mL in 20 mM Tris-HCl and 150 mM NaCl, pH 8; Sigma-Aldrich SAE0159) at 37° C. for 24 hours to crosslink the gelatin coating and enhance phSC cell attachment on the substrate. Following three additional washes with PBS, the cover glasses were UV sterilized in a biosafety cabinet for 1 hour. Carboxyl ferromagnetic particles (4.0-4.9 μm, Spherotech, Inc. CFM-40-10) were vortexed and added to the substrate. The particles were allowed to randomly sink onto the substrate to achieve an approximate density of 1 particle per 1000 μm^2. Non-adherent particles were removed by washing three times with PBS, followed by seeding phSC cells (passage 4-6; 7.5 k cells/cm^2). The cells were then cultured for 2 to 7 hours in DMEM supplemented with 1% FBS and 1×PSG at 37° C. with 5% CO2. The culture time was chosen as the minimum duration necessary for the cells to adopt a spread configuration similar to that observed in situ. Note that this culture time (2 to 7 hours) varied for the tested cell strains. Alternatively, in some experiments, apical-to-basal cell stretching was achieved by adding particles above fully spread cells. High-content screening of transcellular pores: Upon achieving full cell spreading over particles, cells were incubated with the first pore label for 5 minutes, followed by three washes with cell media. Subsequently, cells were either exposed to a magnetic field (as detailed below) or incubated solely with cell media for 10 minutes. Afterward, the cells were incubated with the second pore label (5 μg/mL; Streptavidin, Alexa Fluor 647 Conjugate, Invitrogen S32357) for 5 minutes, all at 37° C. The cells were then immediately washed three times with PBS, fixed with 4% formaldehyde for 15 minutes at room temperature, washed three times with PBS, permeabilized with 0.1% Triton X for 15 minutes, and stained with NucBlue Fixed Cell Ready Probes Reagent (6 drops/mL; Invitrogen R37606) and Alexa Fluor 555 Phalloidin (0.165 μM; Invitrogen R34055) for 1 hour at room temperature. Following these steps, cells were washed three times with PBS, the cover glass was detached from the rest of the 16-well chambered system, mounted on another cover glass using Prolong Gold Antifade Mountant (Invitrogen P10144), and stored in the dark until examination with a Leica DM6 B upright microscope system. Fluorescent and brightfield images were acquired using a 10× objective to generate tile scans for each well. To exclude cells near the well edges, a 4 mm diameter circle was delineated at the center of each image, and the analysis was restricted to the cells within this 4 mm circle. The number of cells, particles beneath cells, and pores were manually counted. Pores incidence rate was quantified as the number of pores associated with particles divided by the number of particles, multiplied by 100. […]

In assay [3] the test system is phSC cells. The experiment in a line: Cell area after treatment (fluorescent images of actin network and nuclei). The note with it: Y-27632 treatments; nSC74, nSC75, nSC82, nSC89; 2-way ANOVA; FIGS. 12A-12B. How it is done:
Treatment with Y-27632 ROCK inhibitor: Cells were seeded above microparticles in 16-well chambered slides in DMEM supplemented with 10% FBS, 1×PSG and allowed to spread for 3.5 hours at 37° C. with 5% CO2. Subsequently, the cells were incubated with 10 μM Y-27632 (Sigma, Y0503) in DMEM supplemented with 1% FBS, 1×PSG for 30 minutes, followed by the first pore label for 5 minutes. Following incubation, the cells were washed, fixed, stained for nuclei and actin filaments, and imaged as described in the section titled “High-content screening of transcellular pores.”

Assay [4] deals with phSC cells. Description: Transcellular pore detection with particles placed on top of cells (apical-to-basal deformation). The conditions noted are these: 10 μM, instead of magnetic field, FIGS. 14A-14B. The method, then:
Substrate preparation and cell culture for transcellular pore formation using microparticles: Round cover glasses (12 mm in diameter) were employed for SEM imaging, while 16-well chambered cover glasses (16 wells per cover glass; Invitrogen C37000) were utilized for other experiments. Glass substrates underwent plasma treatment (Harrick Plasma, PDC-32G) for 2 minutes at high RF power and were immediately incubated at 37° C. with 0.5 mg/mL biotinylated gelatin for 24 hours. After three washes with PBS, the cover glasses were incubated with microbial transglutaminase (0.001 unit/mL in 20 mM Tris-HCl and 150 mM NaCl, pH 8; Sigma-Aldrich SAE0159) at 37° C. for 24 hours to crosslink the gelatin coating and enhance phSC cell attachment on the substrate. […]
High-content screening of transcellular pores: Upon achieving full cell spreading over particles, cells were incubated with the first pore label for 5 minutes, followed by three washes with cell media. […] The cells were then immediately washed three times with PBS, fixed with 4% formaldehyde for 15 minutes at room temperature, washed three times with PBS, permeabilized with 0.1% Triton X for 15 minutes, and stained with NucBlue Fixed Cell Ready Probes Reagent (6 drops/mL; Invitrogen R37606) and Alexa Fluor 555 Phalloidin (0.165 μM; Invitrogen R34055) for 1 hour at room temperature. […]

The mark [5] stands for this setting: primary human SC cells, summary statement without cell strain.

“Also recorded” adds a separate entry of the source.

Take `C[C@@H](N)[C@H]1CC[C@H](C(=O)Nc2ccncc2)CC1` [Y-27632]: in the assay on phSC cells [1] (Y-27632 treatment, four normal cell strains nSC74, nSC75, nSC82, nSC89, FIG. 6C), the cell stiffness entry was “decreased cell stiffness”. Also, the particle-induced pore formation entry in the assay on phSC cells [2] (Y-27632 treatment, four normal cell strains nSC74, nSC75, nSC82, nSC89, FIG. 6D) is “increased pore formation in a dose-dependent manner”. In addition, the pore formation entry with phSC cells [2] (setting [5]) is recorded as “increased pore formation”. Also, in the assay with phSC cells [3], the cell area entry is reported as “did not significantly affect; also recorded: no significant effect”. Also, the “transcellular pores at particle locations” value with phSC cells [4] is on record as “did not induce transcellular pores; also recorded: failed to induce transcellular pores”.

Regarding `CCCCCCCCCCCCC/C=C/[C@@H](O)[C@@H](N)COP(=O)(O)O` [SIP, sphingosine-1-phosphate], the cell stiffness entry is recorded as “did not have a significant effect; also recorded: did not affect” in the assay on phSC cells [1] (SIP treatment, nSC74, FIG. 13A); “increased cell stiffness; also recorded: significant increase” in the assay with phSC cells [1] (SIP treatment, nSC75 and nSC89, FIG. 13A). In addition, the pore formation entry in the assay on phSC cells [2] (SIP treatment, nSC74, FIG. 13B) is on record as “did not have a significant effect; also recorded: did not affect”; with phSC cells [2] (SIP treatment, nSC75 and nSC89, FIG. 13B), “decreased pore formation; also recorded: decrease”; in the assay on phSC cells [2] (setting [5]) it was “decreased pore formation”.

The values are drawn from US20240399360A1, “DEVICES AND METHODS FOR CREATING TRANSCELLULAR PORES” (Georgia Tech Research Corporation, priority 2023, published 2024).
